Measurements reported in US12275731B2, “Azaindole inhibitors of wild-type and mutant forms of LRRK2” (DANA-FARBER CANCER INSTITUTE, INC., priority 2018, dated 2025).

Assays:
Test in all cases: KinomeScan profiling
Format in all cases: binding
RET(V804L) = RET(V804L) (Homo sapiens, UniProt P07949, V804L); details: read-out: % control
Method in brief: (§1)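 Percent-of-control values derive from RLU, calculated as (test − positive)/(negative − positive) × 100, where DMSO defines 100% and a positive control compound defines 0%. Each compound was tested at 1 μM in the 468-kinase panel; sub-35% readings indicate activity.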

PFCDPK1(P. falciparum) = PFCDPK1(P. falciparum) (Plasmodium falciparum, UniProt P62344); details: read-out: % control
Method in brief: as §1

NEK2 = molecular target: T1, NEK2 (Homo sapiens, UniProt P51955); details: NEK2, 1 μM; read-out: % control
T1 sequence (P51955 1-445): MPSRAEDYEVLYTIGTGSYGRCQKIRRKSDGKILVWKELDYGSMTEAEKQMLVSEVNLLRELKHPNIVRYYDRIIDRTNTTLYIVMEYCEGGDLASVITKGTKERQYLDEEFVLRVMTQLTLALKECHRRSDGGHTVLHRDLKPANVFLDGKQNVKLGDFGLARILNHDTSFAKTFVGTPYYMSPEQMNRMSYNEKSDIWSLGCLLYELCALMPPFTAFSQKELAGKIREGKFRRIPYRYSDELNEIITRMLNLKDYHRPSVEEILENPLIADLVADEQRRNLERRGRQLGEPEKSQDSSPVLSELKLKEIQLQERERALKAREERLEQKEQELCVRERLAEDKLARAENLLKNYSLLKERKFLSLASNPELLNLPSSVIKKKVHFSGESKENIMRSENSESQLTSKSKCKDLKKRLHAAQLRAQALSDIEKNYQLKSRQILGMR
Method in brief: as §1

SYK = molecular target: T2, SYK (Homo sapiens, UniProt P43405); details: read-out: % control
T2 construct: purchased KinomeScan® (panel service)
Method in brief: as §1

CAMK2B = CAMK2B (Homo sapiens, UniProt Q13554); details: read-out: % control
Method in brief: as §1

PDPK1 = molecular target: T3, PDPK1 (Homo sapiens, UniProt O15530); details: PDPK1, 1 μM; read-out: % control
T3 sequence (O15530 1-556): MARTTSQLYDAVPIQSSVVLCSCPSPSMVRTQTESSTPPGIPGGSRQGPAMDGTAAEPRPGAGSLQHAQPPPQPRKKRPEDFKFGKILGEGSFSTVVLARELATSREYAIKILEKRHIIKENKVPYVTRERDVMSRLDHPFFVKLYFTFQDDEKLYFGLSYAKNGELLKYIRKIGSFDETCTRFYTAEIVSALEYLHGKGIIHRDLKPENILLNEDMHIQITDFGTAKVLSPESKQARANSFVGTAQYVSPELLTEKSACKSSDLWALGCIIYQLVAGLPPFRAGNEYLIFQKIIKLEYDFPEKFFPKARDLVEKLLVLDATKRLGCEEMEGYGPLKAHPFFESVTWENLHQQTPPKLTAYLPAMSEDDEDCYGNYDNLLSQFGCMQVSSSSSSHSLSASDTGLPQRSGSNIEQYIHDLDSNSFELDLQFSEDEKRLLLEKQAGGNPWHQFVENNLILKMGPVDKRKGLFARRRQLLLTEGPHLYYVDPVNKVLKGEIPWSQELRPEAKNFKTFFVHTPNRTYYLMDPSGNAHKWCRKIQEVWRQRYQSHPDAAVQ
Method in brief: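 Test agents were profiled at a single concentration of 1 μM (DMSO vehicle) on a near-complete set of 468 kinases. Signal is reported relative to vehicle (100%) and a fully displacing control (0%).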

MST2 = molecular target: T4, MST2 (Homo sapiens, UniProt Q13188); details: MST2, 1 μM; read-out: % control
T4 sequence (Q13188 1-491): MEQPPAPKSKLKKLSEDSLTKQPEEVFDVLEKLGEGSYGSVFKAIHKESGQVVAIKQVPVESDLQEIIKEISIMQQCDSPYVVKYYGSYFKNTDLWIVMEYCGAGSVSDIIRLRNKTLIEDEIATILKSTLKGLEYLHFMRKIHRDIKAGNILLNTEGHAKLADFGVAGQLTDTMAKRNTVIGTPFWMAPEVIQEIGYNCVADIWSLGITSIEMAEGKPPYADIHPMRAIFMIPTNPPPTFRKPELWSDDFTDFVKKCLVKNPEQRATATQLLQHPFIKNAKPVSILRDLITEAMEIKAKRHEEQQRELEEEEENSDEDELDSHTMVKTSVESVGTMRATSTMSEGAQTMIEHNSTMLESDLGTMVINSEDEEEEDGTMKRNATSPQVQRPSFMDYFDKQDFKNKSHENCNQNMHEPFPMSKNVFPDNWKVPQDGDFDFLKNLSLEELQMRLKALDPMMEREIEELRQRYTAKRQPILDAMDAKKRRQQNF
Method in brief: as §1

KIT(L576P) = molecular target: T5, KIT(L576P) (Homo sapiens, UniProt P10721, L576P); details: read-out: % control
T5 construct: purchased KinomeScan®
Method in brief: as §1

LRRK2(G2019S) = LRRK2(G2019S) (Homo sapiens, UniProt Q5S007, G2019S); details: read-out: % control
Method in brief: as §1

MAPKAPK5 = molecular target: T6, MAPKAPK5 (Homo sapiens, UniProt Q8IW41); details: MAPKAPK5, 1 μM; read-out: % control
T6 sequence (Q8IW41 1-473): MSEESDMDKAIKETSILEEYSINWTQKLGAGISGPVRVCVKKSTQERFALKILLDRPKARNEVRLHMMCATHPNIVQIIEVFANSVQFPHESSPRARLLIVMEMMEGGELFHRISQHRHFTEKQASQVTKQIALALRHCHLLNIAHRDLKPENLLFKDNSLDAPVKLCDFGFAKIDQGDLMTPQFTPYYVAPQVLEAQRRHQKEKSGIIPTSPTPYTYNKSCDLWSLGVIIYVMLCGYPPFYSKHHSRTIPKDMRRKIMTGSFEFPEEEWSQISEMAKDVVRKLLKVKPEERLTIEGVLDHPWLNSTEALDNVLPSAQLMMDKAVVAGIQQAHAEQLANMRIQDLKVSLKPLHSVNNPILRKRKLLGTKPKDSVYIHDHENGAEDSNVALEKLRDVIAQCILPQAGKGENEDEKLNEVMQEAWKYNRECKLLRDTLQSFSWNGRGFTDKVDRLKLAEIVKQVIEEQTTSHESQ
Method in brief: as §1

LRRK2(G2019S), sequence (Q5S007 whole entry G2019S): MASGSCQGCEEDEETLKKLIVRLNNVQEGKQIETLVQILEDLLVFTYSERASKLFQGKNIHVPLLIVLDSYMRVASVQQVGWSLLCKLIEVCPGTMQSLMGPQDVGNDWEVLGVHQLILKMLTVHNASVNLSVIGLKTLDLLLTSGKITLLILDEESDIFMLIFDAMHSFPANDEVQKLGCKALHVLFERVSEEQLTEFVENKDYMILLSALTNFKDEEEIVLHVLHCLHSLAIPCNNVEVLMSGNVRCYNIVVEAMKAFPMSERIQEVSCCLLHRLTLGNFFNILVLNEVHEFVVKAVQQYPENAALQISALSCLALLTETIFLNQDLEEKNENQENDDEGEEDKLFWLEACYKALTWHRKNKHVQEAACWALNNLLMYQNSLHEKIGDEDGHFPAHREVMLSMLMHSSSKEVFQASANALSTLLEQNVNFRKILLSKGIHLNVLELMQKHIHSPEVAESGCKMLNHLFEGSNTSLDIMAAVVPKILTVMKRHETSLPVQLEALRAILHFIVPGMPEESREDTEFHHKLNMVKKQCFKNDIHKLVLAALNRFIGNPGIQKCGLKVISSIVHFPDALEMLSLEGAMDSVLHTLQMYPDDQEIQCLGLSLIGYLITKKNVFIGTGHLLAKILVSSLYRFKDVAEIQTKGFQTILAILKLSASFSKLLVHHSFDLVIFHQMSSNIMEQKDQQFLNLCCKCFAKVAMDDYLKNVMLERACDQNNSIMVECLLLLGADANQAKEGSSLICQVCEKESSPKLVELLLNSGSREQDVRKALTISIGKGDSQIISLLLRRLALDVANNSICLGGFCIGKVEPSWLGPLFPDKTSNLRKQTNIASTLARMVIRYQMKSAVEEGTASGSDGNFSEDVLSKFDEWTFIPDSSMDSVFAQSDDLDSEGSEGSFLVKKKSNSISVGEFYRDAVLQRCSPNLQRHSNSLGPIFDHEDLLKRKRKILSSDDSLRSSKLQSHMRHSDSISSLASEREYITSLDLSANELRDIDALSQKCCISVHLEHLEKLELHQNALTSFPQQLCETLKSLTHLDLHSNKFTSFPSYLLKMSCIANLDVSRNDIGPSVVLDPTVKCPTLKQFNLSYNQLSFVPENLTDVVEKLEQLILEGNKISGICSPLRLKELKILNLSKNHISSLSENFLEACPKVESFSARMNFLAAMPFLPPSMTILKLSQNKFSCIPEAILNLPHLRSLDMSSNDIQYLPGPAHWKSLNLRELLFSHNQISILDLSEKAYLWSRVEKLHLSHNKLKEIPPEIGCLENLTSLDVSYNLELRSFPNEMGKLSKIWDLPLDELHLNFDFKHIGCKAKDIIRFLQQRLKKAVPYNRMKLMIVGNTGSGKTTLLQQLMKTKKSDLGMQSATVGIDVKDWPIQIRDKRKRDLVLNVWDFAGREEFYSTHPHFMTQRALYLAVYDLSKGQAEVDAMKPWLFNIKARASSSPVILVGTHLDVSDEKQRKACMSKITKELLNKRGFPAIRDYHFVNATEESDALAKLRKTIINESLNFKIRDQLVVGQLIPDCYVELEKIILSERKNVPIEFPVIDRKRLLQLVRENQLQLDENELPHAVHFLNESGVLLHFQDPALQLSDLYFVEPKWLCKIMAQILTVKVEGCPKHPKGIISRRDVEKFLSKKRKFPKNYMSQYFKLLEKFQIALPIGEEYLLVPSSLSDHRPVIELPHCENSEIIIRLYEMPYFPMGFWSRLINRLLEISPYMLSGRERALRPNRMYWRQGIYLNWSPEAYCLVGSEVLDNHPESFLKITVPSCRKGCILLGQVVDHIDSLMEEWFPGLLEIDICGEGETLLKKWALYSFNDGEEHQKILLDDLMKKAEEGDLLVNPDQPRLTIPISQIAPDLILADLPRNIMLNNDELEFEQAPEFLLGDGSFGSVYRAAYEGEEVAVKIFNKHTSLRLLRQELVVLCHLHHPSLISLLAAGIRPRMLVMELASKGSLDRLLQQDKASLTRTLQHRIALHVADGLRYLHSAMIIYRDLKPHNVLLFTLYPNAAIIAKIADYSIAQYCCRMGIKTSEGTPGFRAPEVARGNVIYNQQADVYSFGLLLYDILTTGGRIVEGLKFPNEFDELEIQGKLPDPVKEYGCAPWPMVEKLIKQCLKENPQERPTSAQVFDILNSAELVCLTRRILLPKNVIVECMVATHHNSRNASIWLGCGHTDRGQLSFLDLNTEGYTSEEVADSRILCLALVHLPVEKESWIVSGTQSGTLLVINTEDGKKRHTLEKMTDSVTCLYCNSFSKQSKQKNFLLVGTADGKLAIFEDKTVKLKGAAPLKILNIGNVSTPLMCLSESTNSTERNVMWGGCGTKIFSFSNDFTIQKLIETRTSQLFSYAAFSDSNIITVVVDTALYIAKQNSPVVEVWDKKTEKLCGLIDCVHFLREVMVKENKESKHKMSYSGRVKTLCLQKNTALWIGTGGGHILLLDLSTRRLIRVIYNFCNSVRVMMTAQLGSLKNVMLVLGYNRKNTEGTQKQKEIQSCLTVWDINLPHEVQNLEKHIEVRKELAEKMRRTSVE
CAMK2B, sequence (Q13554 whole entry): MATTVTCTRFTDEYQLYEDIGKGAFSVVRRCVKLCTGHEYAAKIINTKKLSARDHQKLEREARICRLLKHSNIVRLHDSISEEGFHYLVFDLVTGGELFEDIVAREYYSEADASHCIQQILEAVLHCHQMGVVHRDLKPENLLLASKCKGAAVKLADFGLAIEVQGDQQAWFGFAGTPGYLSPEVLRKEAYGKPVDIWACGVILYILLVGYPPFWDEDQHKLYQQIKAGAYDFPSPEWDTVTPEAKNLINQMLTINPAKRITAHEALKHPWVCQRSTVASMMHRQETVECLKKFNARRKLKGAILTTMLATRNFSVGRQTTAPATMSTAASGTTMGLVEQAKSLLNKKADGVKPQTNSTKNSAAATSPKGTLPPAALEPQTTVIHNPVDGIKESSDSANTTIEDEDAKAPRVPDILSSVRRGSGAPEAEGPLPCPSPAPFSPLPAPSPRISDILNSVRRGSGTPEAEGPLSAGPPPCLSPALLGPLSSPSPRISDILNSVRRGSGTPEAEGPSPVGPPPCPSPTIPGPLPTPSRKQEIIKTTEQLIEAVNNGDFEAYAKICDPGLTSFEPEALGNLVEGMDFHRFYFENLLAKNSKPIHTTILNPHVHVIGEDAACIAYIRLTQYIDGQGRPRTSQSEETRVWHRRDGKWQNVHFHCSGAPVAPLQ
PFCDPK1(P. falciparum), sequence (P62344 whole entry): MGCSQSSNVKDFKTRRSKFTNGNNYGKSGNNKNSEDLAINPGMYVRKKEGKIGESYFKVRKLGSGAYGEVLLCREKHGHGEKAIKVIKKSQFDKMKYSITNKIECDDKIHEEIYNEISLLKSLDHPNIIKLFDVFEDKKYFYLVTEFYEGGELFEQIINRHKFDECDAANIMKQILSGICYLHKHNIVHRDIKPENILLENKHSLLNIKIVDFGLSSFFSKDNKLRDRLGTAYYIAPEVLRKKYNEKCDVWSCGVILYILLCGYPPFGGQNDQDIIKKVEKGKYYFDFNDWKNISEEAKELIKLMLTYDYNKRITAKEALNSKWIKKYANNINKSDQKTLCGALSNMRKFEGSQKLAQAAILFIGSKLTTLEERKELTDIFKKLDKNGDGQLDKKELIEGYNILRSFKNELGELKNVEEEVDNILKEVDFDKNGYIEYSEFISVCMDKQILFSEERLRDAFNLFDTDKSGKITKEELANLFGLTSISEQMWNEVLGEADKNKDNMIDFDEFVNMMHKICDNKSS
RET(V804L), sequence (P07949 29-1114 V804L): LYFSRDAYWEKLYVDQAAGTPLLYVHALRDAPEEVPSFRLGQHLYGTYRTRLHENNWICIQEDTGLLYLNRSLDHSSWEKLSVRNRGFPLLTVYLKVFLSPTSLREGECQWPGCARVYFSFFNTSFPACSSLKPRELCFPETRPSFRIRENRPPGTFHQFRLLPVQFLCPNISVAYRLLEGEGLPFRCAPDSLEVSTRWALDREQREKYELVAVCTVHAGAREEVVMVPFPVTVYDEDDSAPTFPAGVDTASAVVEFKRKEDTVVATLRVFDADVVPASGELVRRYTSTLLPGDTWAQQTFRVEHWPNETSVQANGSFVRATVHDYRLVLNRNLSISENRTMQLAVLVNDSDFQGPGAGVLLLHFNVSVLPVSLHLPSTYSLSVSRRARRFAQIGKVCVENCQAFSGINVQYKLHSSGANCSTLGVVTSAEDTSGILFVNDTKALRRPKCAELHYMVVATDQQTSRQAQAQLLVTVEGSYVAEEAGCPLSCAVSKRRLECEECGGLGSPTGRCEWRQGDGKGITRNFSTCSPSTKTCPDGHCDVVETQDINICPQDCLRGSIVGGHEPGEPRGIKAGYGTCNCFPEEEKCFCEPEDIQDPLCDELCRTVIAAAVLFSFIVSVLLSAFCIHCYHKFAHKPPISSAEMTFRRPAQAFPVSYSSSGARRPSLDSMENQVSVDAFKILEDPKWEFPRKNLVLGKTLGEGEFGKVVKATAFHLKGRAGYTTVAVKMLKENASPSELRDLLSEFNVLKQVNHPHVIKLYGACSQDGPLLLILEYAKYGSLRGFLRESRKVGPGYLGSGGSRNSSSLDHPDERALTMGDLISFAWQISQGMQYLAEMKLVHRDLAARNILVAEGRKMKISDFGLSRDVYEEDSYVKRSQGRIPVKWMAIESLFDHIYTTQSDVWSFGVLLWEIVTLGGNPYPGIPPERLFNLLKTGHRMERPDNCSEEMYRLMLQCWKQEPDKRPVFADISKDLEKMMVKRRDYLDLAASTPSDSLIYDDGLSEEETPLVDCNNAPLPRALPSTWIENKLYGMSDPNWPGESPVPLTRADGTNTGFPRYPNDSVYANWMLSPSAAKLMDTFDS

SMILES	remaining binding at 1 µM (RET(V804L)) [%]	remaining binding at 1 µM (PFCDPK1(P. falciparum)) [%]	remaining binding at 1 µM (NEK2) [%]	remaining binding at 1 µM (SYK) [%]	remaining binding at 1 µM (CAMK2B) [%]	remaining binding at 1 µM (PDPK1) [%]	remaining binding at 1 µM (MST2) [%]	remaining binding at 1 µM (KIT(L576P)) [%]	remaining binding at 1 µM (LRRK2(G2019S)) [%]	remaining binding at 1 µM (MAPKAPK5) [%]
CNc1c(-c2cnn([C@H]3CCN(C(C)=O)C[C@@H]3F)c2)cnc2[nH]cc(Cl)c12 [Compound 77, 1-((3S,4S)-4-(4-(3-chloro-4-(methylamino)-1H-pyrrolo[2,3-b]pyridin-5-yl)-1H-pyrazol-1-yl)-3-fluoropiperidin-1-yl)ethan-1-one]	45	86	100	100	100	94	100	10	11	100
CNc1c(-c2ccc(C(=O)N3CCC(N4CCOCC4)CC3)cc2)cnc2[nH]cc(Cl)c12 [Compound 96, (4-(3-chloro-4-(methylamino)-1H-pyrrolo[2,3-b]pyridin-5-yl)phenyl)(4-morpholinopiperidin-1-yl)methanone]	59	94	100	100	100	68	99	19	3.2	100
O=C(c1ccc(-c2cnc3[nH]cc(Cl)c3c2NC2CCCC2)cc1)N1CCC(N2CCOCC2)CC1 [Compound 101, (4-(3-chloro-4-(cyclopentylamino)-1H-pyrrolo[2,3-b]pyridin-5-yl)phenyl)(4-morpholinopiperidin-1-yl)methanone]	97	95	100	100	99	94	74	46	22	100
